According to ChEMBL document CHEMBL1141204, “Carbonic anhydrase activators: X-ray crystal structure of the adduct of human isozyme II with L-histidine as a platform for the design of stronger activators” (Bioorg Med Chem Lett, 2005):

These compounds were tested against Carbonic anhydrase 4 (Homo sapiens) (UniProt P22748) (assay: Activation constant against recombinant human CA IV isozyme by the esterase method).
Format: functional

Sequence of Carbonic anhydrase 4 (Homo sapiens) (P22748 whole entry): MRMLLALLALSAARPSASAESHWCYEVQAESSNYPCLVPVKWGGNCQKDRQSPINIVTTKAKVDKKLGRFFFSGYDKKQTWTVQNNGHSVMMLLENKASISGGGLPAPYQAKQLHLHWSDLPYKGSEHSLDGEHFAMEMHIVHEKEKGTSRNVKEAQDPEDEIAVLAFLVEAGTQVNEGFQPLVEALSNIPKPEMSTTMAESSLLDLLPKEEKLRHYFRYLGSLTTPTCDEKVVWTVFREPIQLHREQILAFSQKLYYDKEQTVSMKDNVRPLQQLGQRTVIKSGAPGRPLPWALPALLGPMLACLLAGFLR

SMILES | KA
COC(=O)[C@@H](N)Cc1c[nH]cn1 | 23 µM
NCCc1c[nH]cn1 | 37 µM
N[C@@H](Cc1c[nH]cn1)C(=O)O | 33 µM
NCCC(=O)N[C@@H](Cc1c[nH]cn1)C(=O)O | 15 µM
N[C@@H](Cc1ccccc1)C(=O)O | 4.6 µM
